Series [1] is described as follows: Thermodynamic solubility test. To be noted: buffer solution, aqueous buffer, thermodynamic from solid; thermodynamic solubility, room temperature, 8 hours shaking; buffers pH 2.0, 6.5, 7.4 used, pH of the tabulated value not given. The format is physicochemical. In a few lines: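 Samples sonicated 10 min, shaken 8 h at room temperature, re-sonicated and centrifuged at 13000 rpm for 15 min. Supernatant recentrifuged and analysed by LC-MS, with concentrations quantified against a 3–5 point calibration curve.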

Another series has as its system melanin. Put plainly: Compound binding to melanin. The format is in vitro ADME. The following applies: cuttlefish (Sepia officinalis), melanin suspension (1 mg/mL), percentage of free drug (not bound to melanin), 2 µM compound, melanin 1 mg/mL in PBS pH 7.4, 37°C. The essentials:
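Compound at 2 µM final incubated with 1 mg/mL Sepia melanin in PBS pH 7.4, 37°C, 2 hours with shaking; blank in PBS with 0.1% BSA. Supernatant concentration by LC-MS/MS. Fb = 100 − (Ctest/Ccontrol) × 100%.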

Series [2] can be described thus: Ophthalmic formulations based on in situ salt formation technology: composition and state (Example 8). The series is classed as physicochemical. To be noted: for State Description: pH ~7; for State Description: pH / State Description: state: Table 17: 5 mg/mL, HP-β-CD 15, Poloxamer 188 1, Gelrite 0.15, Tris-HCl (pH 6.8) 25mM. The source says:
In the following ophthalmic formulation preparation examples, "solution" refers to a clear, transparent liquid without visible insoluble matter. "Near-clear solution" refers to a liquid that appears close to a solution upon visual observation but may contain a small amount of insoluble particles or have a slightly opaque color. "Suspension" refers to a liquid that is visibly turbid or opaque. "Gel" refers to a completely or partially gel-like solid.
Example 8: Ophthalmic Formulation Based on In Situ Salt Formation Technology
Therefore, by preparing ophthalmic formulation compositions based on in situ salt formation technology, the solubility of the compounds can be further improved.
According to the formulation composition shown in the table below, weigh the compound powder, add 50% of the total volume (v/v) of a 30% (w/v) aqueous solution of hydroxypropyl-β-cyclodextrin (containing surfactant), and disperse by sonication; next, add an appropriate volume of pH regulator and sonicate until clear; then, add an equal volume of buffer containing solubilizer, viscosity modifier, etc., for dilution, and immediately vortex to mix; finally, add an appropriate volume of alkali regulator to adjust the solution pH to approximately 7, to prepare an eye drop formulation.
Using the in situ salt formation method, the compound is first dispersed in a solution containing Hydroxypropyl-β-cyclodextrin, then different acids are added to adjust the pH to 3-5, allowing the compound to fully or nearly fully dissolve, followed by adding the remaining components and adjusting the pH to approximately 7. […] Based on the visual dissolution effect after acid addition, methanesulfonic acid, acetic acid, and lactic acid were preliminarily selected as pH regulators. The preliminarily selected acids were used in subsequent tests with higher compound concentrations. Table 18 Formulation Composition and State

Series [3] is described as follows: Effect of gellan gum on formulation viscosity and viscosity change after adding simulated tear fluid (Example 10). The format is physicochemical. To be noted: compound 5 mg/mL, Gellan Gum 0.15% w/v; for Viscosity after Adding STF: simulated tear fluid added, volume ratio 3.6:1. On the procedure:
Example 10: Effect of Gellan Gum on Formulation Viscosity and Viscosity Change after Adding Simulated Tear Fluid
This example investigates the effect of gellan gum on formulation viscosity and simulates the scenario of eye drop instillation by adding simulated tear fluid to the formulation at a volume ratio of 3.6:1. Table 23 Effect of Gellan Gum on Formulation Viscosity
The ophthalmic drop formulation in this example was prepared using the preparation method from Example 8 (i.e., one type of Formulation II of the present invention). Except for compound , the other components in the formulation are: 30% Hydroxypropyl-β-cyclodextrin solution (containing 2% polyoxyethylene castor oil EL): 50 mM Tris(hydroxymethyl)aminomethane-Hydrochloric Acid Buffer (containing 2% Poloxamer 188, 0.3% Gellan Gum Gelrite, w/v) = 50:50 v/v, adjusted to pH using Methanesulfonic Acid and Tris(hydroxymethyl)aminomethane.

Setting [4] is: 0.05M Fumaric Acid 10, 0.5M Tris 0.5.
Setting [5] is: 1M Acetic Acid 1, 0.5M Tris 0.5.
[6] abbreviates: 1M Lactic Acid 1, 0.5M Tris 0.5.
Where [7] appears, read: 1M Maleic Acid 1, 0.5M Tris 1.5.
Where [8] appears, read: 1M Methanesulfonic Acid 1, 0.5M Tris 0.5.
Setting [9] is: 1M Tartaric Acid 1, 0.5M Tris 1.

≈ marks a conversion by molar mass, not a printed value.

In the case of `CCNC(=O)c1cc(F)ccc1Sc1ccc2c(/C=C/c3ccc(CN4CCCC4)cn3)n[nH]c2c1` [Compound I-97, N-ethyl-5-fluoro-2-({3-[(E)-2-{5-[(pyrrolidin-1-yl)methyl]pyridin-2-yl}ethenyl]-1H-indazol-6-yl}sulfanyl)benzamide], the concentration in solution in series [1] (solubility at 8 h) came to 319 µg/mL (≈ 635 µM). Also, the fraction unbound (in general, free concentration divided by total concentration) at 2 h, 2 µM with melanin was 0.01 to 0.05. The “State Description” value in series [2] (Compound 10 mg/ml, 1M Acetic Acid 2%, no Polyoxyethylene castor oil EL, 0.5M Tris 1%) is listed as “pH ~7, near-clear solution, with opalescence”; in series [2] (Compound 10 mg/ml, 1M Lactic Acid 2%, no Polyoxyethylene castor oil EL, 0.5M Tris 1%), “pH ~7, near-clear solution, with opalescence”; in series [2] (Compound 10mg/ml, 1M Methanesulfonic Acid 2%, no Polyoxyethylene castor oil EL, 0.5M Tris 1%), “pH ~7, near-clear solution, with opalescence”; in series [2] (Compound 15 mg/ml, 1M Methanesulfonic Acid 3%, no Polyoxyethylene castor oil EL, 0.5M Tris 1%), “pH ~7, near-clear solution, with opalescence”; in series [2] (Compound 20 mg/ml, 1M Methanesulfonic Acid 4%, Polyoxyethylene castor oil EL 1%, 0.5M Tris 1%), “solution”; in series [2] (Compound 20 mg/ml, 1M Methanesulfonic Acid 4%, no Polyoxyethylene castor oil EL, 0.5M Tris 0.5%) it was “pH ~7, near-clear solution, with opalescence”. Moreover, the “State Description: pH” value in series [2] (setting [4]), in series [2] (setting [5]), in series [2] (setting [6]), in series [2] (setting [7]), in series [2] (setting [8]) and in series [2] (setting [9]) was roughly 7 each time. Besides, the “State Description: state” value is “suspension” in series [2] (setting [4]); “near-clear solution” in series [2] (setting [5]); “near-clear solution” in series [2] (setting [6]); “near-clear solution” in series [2] (setting [7]); “near-clear solution” in series [2] (setting [8]); “near-clear solution” in series [2] (setting [9]). Further, the “Formulation Viscosity” value in series [3] (Test temperature 25 °C) is given as 19.01 mPa.s; in series [3] (Test temperature 37 °C) it was 7.97 mPa.s. The “Viscosity after Adding STF” value in series [3] (Test temperature 25 °C) is given as 24.19 mPa.s; in series [3] (Test temperature 37 °C), 21.95 mPa.s.

For `O=C(NC1CC1)c1cccc(F)c1Sc1ccc2c(/C=C/c3cnn(CCCN4CCCC4)c3)n[nH]c2c1` [Compound I-44, N-cyclopropyl-3-fluoro-2-({3-[(E)-2-{1-[3-(pyrrolidin-1-yl)propyl]-1H-pyrazol-4-yl}ethenyl]-1H-indazol-6-yl}sulfanyl)benzamide], the solubility (in general, the dissolved amount per volume that the medium holds) at 8 h in series [1] was 564 µg/mL (≈ 1060 µM). The fraction unbound at 2 h, 2 µM in the series on melanin lay within 0.01 to 0.05. The “State Description” value in series [2] (Table 21, Compound 10 mg/ml, 1M Methanesulfonic Acid 1%, Polyoxyethylene castor oil EL 1%, no 0.5M Tris) was “near-clear solution”; in series [2] (Table 21, Compound 20 mg/ml, 1M Methanesulfonic Acid 4%, Polyoxyethylene castor oil EL 1%, 0.5M Tris 1%), “near-clear solution”. The results for the “Formulation Viscosity” value in series [3] (Test temperature 25 °C) and in series [3] (Test temperature 37 °C) were 23.27 mPa.s and 9.53 mPa.s, respectively. Also, the “Viscosity after Adding STF” value is reported as 27.26 mPa.s in series [3] (Test temperature 25 °C) and 24.06 mPa.s in series [3] (Test temperature 37 °C).

These data come from patent EP4781984A1 (Beyang Therapeutics Co., Ltd., priority 2023, dated 2025).
